These results are taken from PMC5547389, “Structure-activity relationships and molecular docking studies of chromene and chromene based azo chromophores: A novel series of potent antimicrobial and anticancer agents” (EXCLI Journal, 2017).

Test [1] relates to Aspergillus fumigatus (RCMB 02568). The test is described as follows: Well diffusion assay (inhibition zone). The class given is cell-based. The conditions noted are these: RCMB02568, 5 mg/mL in DMSO, fungi, read-out: Inhibition Zone (IZ) diameter, A.F. The method in brief: (§1)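 Agar well diffusion with 10 mm wells, nutrient agar for bacteria and malt extract agar for fungi. Plates were incubated 24-48 h at 37 °C for bacteria or 28 °C for fungi. Inhibition zone diameters were measured in mm, in triplicate.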
For orientation: In agar diffusion tests the substance spreads into inoculated agar from a disc or well.

For test [2], the system named is Bacillus subtilis (RCMB 010067). The test is described as follows: Well diffusion assay (inhibition zone). The class given is cell-based. The conditions noted are these: RCMB010067, 5 mg/mL in DMSO, Gm+ve, read-out: Inhibition Zone (IZ) diameter, B.S. In outline: as §1
For test [3], the system named is Escherichia coli (RCMB 010052). The test is described as follows: Well diffusion assay (inhibition zone). Format: cell-based. The conditions noted are these: RCMB010052, 5 mg/mL in DMSO, Gm-ve, read-out: Inhibition Zone (IZ) diameter, E.C. The method in brief:
as §1

The subject of test [4] is Streptococcus pneumoniae (RCMB 010010). The test is described as follows: Well diffusion assay (inhibition zone). The conditions noted are these: RCMB010010, 5 mg/mL in DMSO, Gm+ve, read-out: Inhibition Zone (IZ) diameter, S.P. Format: cell-based. The method in brief: as §1
Test [5] relates to Syncephalastrum racemosum (RCMB 05922). The test is described as follows: Well diffusion assay (inhibition zone). Format: cell-based. The conditions noted are these: RCMB05922, 5 mg/mL in DMSO, fungi, read-out: Inhibition Zone (IZ) diameter, S.R. The method in brief:
as §1

In test [6] the test system is Aspergillus fumigatus (RCMB 02568). The test is described as follows: MIC by serial dilution method. The class given is cell-based. The conditions noted are these: RCMB02568, fungi, read-out: Minimum inhibitory concentration, MIC, A.F. The method in brief: (§2)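 Compounds were first screened by the agar diffusion well method, and […] MICs were then determined by serial dilution. Ampicillin, ciprofloxacin, gentamicin and amphotericin B served as positive control drugs.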

The subject of test [7] is Bacillus subtilis (RCMB 010067). The test is described as follows: MIC by serial dilution method. The conditions noted are these: RCMB010067, Gm+ve, read-out: Minimum inhibitory concentration, MIC, B.S. Format: cell-based. In outline: as §2
Test [8] concerns Escherichia coli (RCMB 010052). The test is described as follows: MIC by serial dilution method. The conditions noted are these: RCMB010052, Gm-ve, read-out: Minimum inhibitory concentration, MIC, E.C. Format: cell-based. The method in brief: as §2
The test system of test [9] is Streptococcus pneumoniae (RCMB 010010). The test is described as follows: MIC by serial dilution method. The class given is cell-based. The conditions noted are these: RCMB010010, Gm+ve, read-out: Minimum inhibitory concentration, MIC, S.P. In outline:
as §2

For test [10], the system named is Syncephalastrum racemosum (RCMB 05922). The test is described as follows: MIC by serial dilution method. The class given is cell-based. The conditions noted are these: RCMB05922, fungi, read-out: Minimum inhibitory concentration, MIC, S.R. The method in brief: as §2
Test [11] addresses T1, DNA gyrase from Escherichia coli (Escherichia coli, UniProt P0AES4+P0AES6).
T1 construct: purchased Inspiral is Ltd (Norwich, United Kingdom)
The test is described as follows: In vitro inhibitory activity screening of E. coli DNA gyrase. Format: biochemical. The conditions noted are these: for remaining activity at 10 µM: 10 μM of compound, read-out: DNA Gyrase Residual activity RA (10 μM); for remaining activity at 100 µM: read-out: DNA Gyrase Residual activity RA (100 μM). On the procedure: Gyrase B and ParE monomers have only modest ATPase activity which is enhanced in the case of the holo enzymes and stimulated further by DNA. The phosphate released following conversion of ATP into ADP can be detected by the addition of malachite green solution and measured by monitoring the increase in absorbance at 600 nm. Topoisomerases were purchased from Inspiral is Ltd (Norwich, United Kingdom). For the Escherichia coli DNA gyrase ATPase assay, the final assay composition was 10 nM DNA gyrase (a complex of two GyrA and two GyrB subunits, the A2B2 complex) 3 mM Tris, pH 7.5, 24 mM KCl, 2 mM MgCl2, 6.5 % (w/v) glycerol, 0.01 mg/ml bovine serum albumin (BSA), 2 mM DTT (dithiothreitol), 9 mM ATP, and 5 % DMSO solution containing the compounds). For E. coli topoisomerase IV ATPase assay, the final assay composition was 10 nM topoisomerase IV (a complex consisting of two ParC and two ParE subunits), 40 mM HEPES-KOH, pH 7.6, 100 mM Potassium Glutamate, 25 mM Magnesium Acetate, […] single-stranded DNA, 0.2 mg/ml BSA, 10 mM DTT, 0.5 mM ATP, and 5 % DMSO solution containing the compounds. The reactions were started by the addition of the ATP, and the reaction mixtures were allowed to incubate at 30 °C for 60 mins. Reactions were stopped by adding Malachite green solution (0.034 % malachite green, 10 mM ammonium molybdate, 1M HCl, 3.4 % Ethanol, 0.01 % Tween 20). Color was allowed to develop for 5 min, and the absorbance at 600 nm was measured spectrophotometrically. The half-maximum (50 %) inhibitory concentration (IC50) values were determined from the absorbance readings using no-compound and no-enzyme controls. The values reported are the averages of at least four independent experiments.
Based upon the antimicrobial screening data, target compounds 4a, 7c, and 13b were evaluated against DNA gyrase from Escherichia coli in the DNA supercoiling assay for studying their mechanism. The results are presented in Table 5(Tab. 5) as residual activities (RA is the percentage activity of the enzyme in the presence of 10 μM and 100 μM of compound).

Test [12] has as its system Geotricum candidum (RCMB 05097). The test is described as follows: Well diffusion assay (inhibition zone). The conditions noted are these: 5 mg/mL in DMSO; fungi; read-out: Inhibition Zone (IZ) diameter, G.C. The class given is cell-based. In outline:
as §1

Test [13] shares this test system. The test is described as follows: MIC by serial dilution method. The class given is cell-based. The conditions noted are these: fungi; read-out: Minimum inhibitory concentration, MIC, G.C. The method in brief: as §2

Converted amounts (≈) assume the structure as drawn.

T1 sequence (P0AES4 whole entry, one chain of several): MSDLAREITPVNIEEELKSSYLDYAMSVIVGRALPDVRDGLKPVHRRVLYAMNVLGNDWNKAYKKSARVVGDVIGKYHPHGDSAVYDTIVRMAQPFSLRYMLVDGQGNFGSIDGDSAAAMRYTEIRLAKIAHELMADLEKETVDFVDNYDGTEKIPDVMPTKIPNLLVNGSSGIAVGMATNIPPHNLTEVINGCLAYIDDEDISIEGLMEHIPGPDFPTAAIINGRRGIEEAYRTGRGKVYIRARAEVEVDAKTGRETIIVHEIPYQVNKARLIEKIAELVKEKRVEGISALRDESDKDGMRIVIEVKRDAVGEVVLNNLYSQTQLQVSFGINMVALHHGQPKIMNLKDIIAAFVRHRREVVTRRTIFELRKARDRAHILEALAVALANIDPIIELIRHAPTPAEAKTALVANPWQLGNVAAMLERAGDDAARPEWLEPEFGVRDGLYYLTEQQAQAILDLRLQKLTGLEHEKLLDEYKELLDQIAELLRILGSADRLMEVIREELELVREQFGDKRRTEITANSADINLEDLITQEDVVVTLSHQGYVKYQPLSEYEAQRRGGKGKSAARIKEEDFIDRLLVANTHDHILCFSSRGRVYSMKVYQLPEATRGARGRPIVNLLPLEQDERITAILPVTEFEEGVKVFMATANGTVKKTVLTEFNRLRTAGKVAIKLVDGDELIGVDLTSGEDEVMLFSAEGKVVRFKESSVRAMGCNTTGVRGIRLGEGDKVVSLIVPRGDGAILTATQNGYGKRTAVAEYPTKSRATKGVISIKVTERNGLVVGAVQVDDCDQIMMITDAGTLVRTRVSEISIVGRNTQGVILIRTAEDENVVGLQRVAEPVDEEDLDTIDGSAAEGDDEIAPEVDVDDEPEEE

For the compound `N#CC1=C(N)Oc2c(N)cc3ccccc3c2C1c1ccc(F)cc1` (stereo not shown) [4a, 3,5-diamino-1-(4-fluorophenyl)-1H-benzo[f]chromene-2-carbonitrile], the zone of inhibition at 5000 µg/mL in test [1] turned out to be 12.3 mm; in [2], 18.2 mm; in [3], 11.9 mm; in [4], 16.9 mm; in test [5], 12.6 mm. For the same compound, the MIC was found to be 15.6 µg/mL (≈ 47.2 µM) in [6]; 3.9 µg/mL (≈ 11.8 µM) in test [7]; 7.81 µg/mL (≈ 23.6 µM) in [8]; 15.6 µg/mL (≈ 47.2 µM) in [9]; 7.81 µg/mL (≈ 23.6 µM) in test [10]. Also, the remaining activity at 10 µM in test [11] came to 117%. Also, in test [11], the remaining activity at 100 µM was found to be 114%.
Turning to `N#CC1=C(N)Oc2c(N)cc3ccccc3c2C1c1ccc(Cl)cc1` (stereo not shown) [4b, 3,5-diamino-1-(4-chlorophenyl)-1H-benzo[f]chromene-2-carbonitrile], the zone of inhibition at 5000 µg/mL turned out to be 24.3 mm in test [1]; 33.7 mm in [2]; 18.3 mm in test [3]; 26.9 mm in test [12]; 22.6 mm in test [4]; 17.6 mm in test [5]. For the same compound, the MIC in [6] turned out to be 0.24 µg/mL (≈ 0.69 µM); in test [7], 0.007 µg/mL (≈ 0.0201 µM); in test [8] it was 15.6 µg/mL (≈ 44.9 µM); in [13] it was 0.03 µg/mL (≈ 0.0863 µM); in [9] it was 0.49 µg/mL (≈ 1.41 µM); in test [10], 31.2 µg/mL (≈ 89.8 µM).
Turning to `Cc1ccc(C2C(C#N)=C(N)Oc3c(N)cc4ccccc4c32)cc1` (stereo not shown) [4c, 3,5-diamino-1-(p-tolyl)-1H-benzo[f]chromene-2-carbonitrile], the zone of inhibition at 5000 µg/mL in test [1] worked out at 20.2 mm; in test [2], 19.4 mm; in test [3] it was 15.3 mm; in [12], 18.6 mm; in test [4], 18.2 mm; in test [5], 16.9 mm. Moreover, the MIC in test [6] amounted to 3.9 µg/mL (≈ 11.9 µM); in [7] it was 7.81 µg/mL (≈ 23.9 µM); in test [8], 62.5 µg/mL (≈ 191 µM); in test [13] it was 7.81 µg/mL (≈ 23.9 µM); in test [9] it was 7.81 µg/mL (≈ 23.9 µM); in test [10], 31.2 µg/mL (≈ 95.5 µM).
For the compound `N#CC1=C(N)Oc2c(ccc3c(N)cccc23)C1c1ccc(F)cc1` (stereo not shown) [7c], the zone of inhibition at 5000 µg/mL in [1] came out at 18.2 mm; in test [2], 21.3 mm; in [3], 18.6 mm; in test [12] it was 20.1 mm; in [4], 17.8 mm; in [5], 16.2 mm. Further, in [11], the remaining activity at 10 µM came out at 125%. Also, the remaining activity at 100 µM in [11] was determined as 128%.
As for `COc1ccc(N=Nc2cc3c(cc2O)OC(N)=C(C#N)C3c2ccc(F)cc2)cc1` (stereo not shown) [13b, 2-Amino-4-(4-fluoro-phenyl)-7-hydroxy-6-(4-methoxy-phenylazo)-4H-chromene-3-carbonitrile], the zone of inhibition at 5000 µg/mL in test [1] was 16.3 mm; in test [2] it was 19.7 mm; in test [3] it was 17.8 mm; in test [12], 17.3 mm; in test [4], 17.5 mm; in test [5] it was 15.2 mm. Besides, the MIC in test [6] is 62.5 µg/mL (≈ 150 µM); in [7], 3.9 µg/mL (≈ 9.37 µM); in test [8] it was 15.6 µg/mL (≈ 37.5 µM); in test [13] it was 31.2 µg/mL (≈ 74.9 µM); in test [9] it was 31.2 µg/mL (≈ 75 µM); in test [10], 62.5 µg/mL (≈ 150 µM). In addition, in test [11], the remaining activity at 10 µM is 137%. Moreover, in test [11], the remaining activity at 100 µM turned out to be 127%.
